Reference: patent publication US8053013B2, “Flavour modulating substances” (Quest International Services B.V., priority 2004, dated 2011)

Assays:
[1] = Tasting session by a panel of experienced flavourists: solution in tap water (Example 7); conditions: 0.1 wt % in tap water
Experimental: For a tasting session by a panel of experienced flavourists a solution comprising 0.1 wt % of a flavour composition as prepared in example 4 in tap water was prepared.

[2] = Panel evaluation of HIT Duck Flavour samples with and without N Lactoyl glucosamine (Example 8); conditions: Sample B: 0.006% N Lactoyl glucosamine with 0.6% NaCl, 0.03% MSG, 0.1% HIT Duck Flavour (Quest)
Experimental: Two samples were prepared as follow and compared:
Sample A: 0.6% of NaCl, 0.03% of MSG and 0.1% of HIT Duck Flavour (Quest)
Sample B: 0.6% of NaCl, 0.03% of MSG, 0.1% of HIT Duck Flavour (Quest) and 0.006% N Lactoyl glucosamine as prepared in example 4.
The samples were evaluated by a panel of experienced flavourists. There was general agreement about the difference in taste between the samples: […]

CC(O)C(=O)N[C@H]1C(O)O[C@H](CO)[C@@H](O)[C@@H]1O (some centres unmarked) [Example 4, N-Lactoyl-Glucosamine]
taste of the solution described by panellists [1]: strong metallic, bloody, raw meat like
taste described by flavourists, compared with sample A without the substance [2]: savoury duck flavour, with slightly metallic taste, and more meaty character, authenticity, and naturalness than sample A
